Counter-ions that a name gives are not always drawn. Like-named read-outs stand apart in the source and are kept apart here. Blank lines part the entries; values can stand above or below the compound they belong to.
Assays:
Primary human T-cells = test: Primary Human T-Cell Proliferation Assay Stimulated with IL-2 (CellTiter-Glo); type: cell-based; settings: read-out: IC50, Example 42
How it was run: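 IC50 derived from CellTiter-Glo ATP signal after 72 hours of IL-2-driven proliferation at 37° C. Cells: primary human T-cells from blood, stimulated beforehand 3-4 days on anti-CD3/anti-CD28 with IL-2, then rested from IL-2 before compound exposure in duplicate; IL-2-free wells served as unstimulated control.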

[1] = test system: IL-4 stimulated expression of CD23 in human Ramos B cells (JAK-1 and JAK-3); test: Assay for Ramos B-Cell Line Stimulated with IL-4 (CD23 upregulation, FACS); type: cell-based; settings: read-out: IC50, Example 41
How it was run: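 Read-out: anti-CD23-PE flow cytometry on Ramos B cells, giving IC50. Cells (5×10^4 per point, RPMI + 5% serum) get compound or DMSO for 1 h at 37 °C, then IL-4 50 units/mL final for 20-24 h.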

[2] = primary human T-cells stimulated with IL-2, proliferation
[3] = Ramos B cells stimulated with IL-4, CD23 expression by FACS
[4] = primary human T-cell proliferation stimulated with IL-2
[5] = Ramos B-cell line stimulated with IL-4, CD23 expression by FACS
[6] = Homo sapiens, T-cell, primary human T-cell proliferation stimulated with IL-2
[7] = Homo sapiens, Ramos, Ramos B-cell line stimulated with IL-4, CD23 expression by FACS
[8] = Homo sapiens, T-cell, primary human T-cells stimulated with IL-2, proliferation
[9] = Homo sapiens, Ramos, Ramos B cells stimulated with IL-4, CD23 expression by FACS

Compound: N4-(4-Acetylthiomethylcarbonylphenyl)-N2-(3-aminosulfonyl-4-methylphenyl)-5-fluoro-2,4-pyrimidinediamine [IX-43]
- IC50 (Primary human T-cells; [2]): 2800 nM
- IC50 [1, 3]: 523 nM

Compound: CN1CCN(S(=O)(=O)c2ccc(Nc3ncc(F)c(Nc4ccc(OCC#N)cc4)n3)cc2)CC1 [Compound I-18, N4-(4-Cyanomethoxy)phenyl-5-fluoro-N2-[4-(4-methylpiperazin-1-yl)sulfonyl]phenyl-2,4-pyrimidinediamine]
- IC50 (Primary human T-cells; [4]): 1490 nM
- IC50 [1, 5]: 283 nM

Compound: CNC(=O)COc1ccc(Nc2nc(Nc3ccc(S(N)(=O)=O)cc3)ncc2C)cc1F [Compound I-154, N2-(4-Aminosulfonylphenyl)-N4-(3-fluoro-4-methylaminocarbonylmethoxyphenyl)-5-methyl-2,4-pyrimidinediamine]
- IC50 (Primary human T-cells; [6]): 992 nM
- IC50 [1, 7]: 276 nM

Compound: CNS(=O)(=O)c1cc(Nc2ncc(F)c(Nc3ccc(Oc4ccncc4)cc3)n2)ccc1C [II-18, 5-Fluoro-N2-[3-(N-methylaminosulfony)-4-methylphenyl]-5-fluoro-N4-[4-(4-pyridyloxy)phenyl]-2,4-pyrimidinediamine]
- IC50 (Primary human T-cells; [4]): 3310 nM
- IC50 [1, 5]: 2040 nM

Compound: NS(=O)(=O)c1cccc(Nc2ncc(F)c(Nc3cccc(OCc4cccnc4)c3)n2)c1 [Compound I-182, N2-(3-Aminosulfonylphenyl)-5-fluoro-N4-[3-(3-pyridinyl)methyleneoxyphenyl]-2,4-pyrimidinediamine]
- IC50 (Primary human T-cells; [4]): 1130 nM
- IC50 [1, 5]: 190 nM

Compound: Cc1ccc(Nc2ncc(F)c(Nc3ccc(Cl)c(C(F)(F)F)c3)n2)cc1S(N)(=O)=O [VI-39, N2-(3-Aminosulfonyl-4-methyl-phenyl)-N4-(4-chloro-3-trifluoromethylphenyl)-5-fluoro-2,4-pyrimidinediamine]
- IC50 (Primary human T-cells; [8]): 3140 nM
- IC50 [1, 9]: 401 nM

Compound: Cc1ccc(Nc2ncc(F)c(Nc3ccc(-c4ccccn4)c(OCCl)c3)n2)cc1S(N)(=O)=O [Compound I-174, N2-(3-Aminosulfonyl-4-methylphenyl)-5-fluoro-N4-[4-(2-pyridinyl)-3-chloromethyleneoxyphenyl]-2,4-pyrimidinediamine]
- IC50 (Primary human T-cells; [4]): 1230 nM
- IC50 [1, 5]: 117 nM

Compound: NS(=O)(=O)c1ccc(Nc2ncc(F)c(Nc3ccc(OCc4ccccn4)c(Cl)c3)n2)cc1 [Compound I-175, N2-(4-Aminosulfonylphenyl)-5-fluoro-N4-[4-(2-pyridinyl)-3-chloromethyleneoxyphenyl]-2,4-pyrimidinediamine]
- IC50 (Primary human T-cells; [4]): 3080 nM
- IC50 [1, 5]: 147 nM

Compound: CNC(=O)COc1ccc(Nc2nc(Nc3cccc(S(N)(=O)=O)c3)ncc2F)cc1Cl [Compound I-147, N2-(3-Aminosulfonylphenyl)-N4-(3-chloro-4-methylaminocarbonylmethoxyphenyl)-5-fluoro-2,4-pyrimidinediamine]
- IC50 (Primary human T-cells; [6]): 174 nM
- IC50 [1, 7]: 79.9 nM

Compound: CN1CCN(C(=O)c2ccc(Nc3nc(Nc4cccc(S(N)(=O)=O)c4)ncc3F)cc2)CC1 [IX-28, N2-(3-Aminosulfonylphenyl)-5-fluoro-N4-[4-(4-methylpiperazin-1-ylcarbonyl)phenyl]-2,4-pyrimidinediamine]
- IC50 (Primary human T-cells; [8]): 10100 nM
- IC50 [1, 9]: 1660 nM

Compound: COC(=O)c1ccc(Nc2nc(Nc3cccc(S(N)(=O)=O)c3)ncc2F)s1 [IX-47, N2-(3-Aminosulfonylphenyl)-5-fluoro-N4-(5-methoxycarbonyl-thiophene-2-yl)-2,4-pyrimidinediamine]
- IC50 (Primary human T-cells; [8]): 2390 nM
- IC50 [1, 9]: 223 nM

Compound: N2-(3-Aminosulfonyl-4-chlorophenyl)-N4-(4-benzylphenyl)-5-fluoro-2,4-pyrimidinediamine [III-64]
- IC50 (Primary human T-cells; [4]): 5960 nM
- IC50 [1, 5]: 447 nM

Compound: Cc1cc(COc2ccc(Nc3nc(Nc4ccc(C)c(S(N)(=O)=O)c4)ncc3F)cn2)no1 [Compound V-1, N2-(3-Aminosulfonyl-4-methylphenyl)-5-fluoro-N4-[2-(5-methylisoxazol-3-yl)methyleneoxypyridin-5-yl]-2,4-pyrimidinediamine]
- IC50 (Primary human T-cells; [2]): 9770 nM
- IC50 [1, 3]: 2000 nM

Compound: N2-(3-Aminosulfonyl-4-methoxy-5-methylphenyl)-N4-(4-chloro-3-trifluoromethyl-phenyl)-5-fluoro-2,4-pyrimidinediamine [VI-40]
- IC50 (Primary human T-cells; [2]): 1240 nM
- IC50 [1, 3]: 288 nM

Compound: CC1(C)Oc2cc(Nc3nc(Nc4ccc(Cl)c(S(N)(=O)=O)c4)ncc3F)cnc2N(CC#N)C1=O [Compound V-15, N2-(3-Aminosulfonyl-4-chlorophenyl)-N4-[2,2-dimethyl-3-oxo-4-cyanomethyl-5-pyrid[1,4]oxazin-7-yl]-5-fluoro-2,4-pyrimidinediamine]
- IC50 (Primary human T-cells; [2]): 9310 nM
- IC50 [1, 3]: 173 nM

Compound: N2-(3-Aminosulfonyl-4-methylphenyl)-N4-(4-benzylphenyl)-5-fluoro-2,4-pyrimidinediamine [III-63]
- IC50 (Primary human T-cells; [4]): 1880 nM
- IC50 [1, 5]: 315 nM

More lines, main results first:

- IC50 [1, 5]: 3630 nM
Compound: CCC(=O)NS(=O)(=O)c1cc(Nc2ncc(F)c(Nc3ccc(CCC#N)c(Cl)c3)n2)ccc1C [III-29, N4-(3-Chloro-4-cyanoethylene-phenyl)-5-fluoro-N2-(4-methyl-3-propionylaminosulfonylphenyl)-2,4-pyrimidinediamine Sodium salt]
- IC50 (Primary human T-cells; [4]): 12400 nM

- IC50 [1, 5]: 198 nM
Compound: NS(=O)(=O)c1ccc(Nc2ncc(F)c(Nc3cccc(CNC(=O)C4CC4)c3)n2)cc1 [III-38, N2-(4-aminosulfonyl)phenyl-N4-(3-cyclopropylcarbonylaminomethyl)phenyl-5-fluoro-2,4-pyrimidinediamine]
- IC50 (Primary human T-cells; [4]): 1130 nM

- IC50 [1, 7]: 169 nM
Compound: NS(=O)(=O)c1ccc(Nc2ncc(F)c(NCCc3ccc(-c4ccncc4)cc3)n2)cc1 [III-79, N2-(4-Aminosulfonylphenyl)-5-fluoro-N4-[4-(4-pyridinyl)phenethyl]-2,4-pyrimidinediamine]
- IC50 (Primary human T-cells; [6]): 967 nM

- IC50 [1, 5]: 204 nM
Compound: NC(=O)CCc1ccc(Nc2nc(Nc3cccc(S(N)(=O)=O)c3)ncc2F)cc1 [III-48, N4-[4-(2-Aminocarboxylethylene)phenyl]-N2-(3-aminosulfonylphenyl)-5-fluoro-2,4-pyrimidinediamine]
- IC50 (Primary human T-cells; [4]): 218 nM

- IC50 [1, 9]: 236 nM
Compound: CN1C(=O)COc2ccc(Nc3nc(Nc4ccc(S(N)(=O)=O)cc4)ncc3F)cc21 [VII-40, N2-(4-Aminosulfonylphenyl)-5-fluoro-N4-(4-methyl-3-oxo-benz[1,4]oxazin-6-yl)-2,4-pyrimidinediamine]
- IC50 (Primary human T-cells; [8]): 6480 nM

- IC50 [1, 3]: 240 nM
Compound: Cc1ccc(Nc2ncc(F)c(Nc3ccc(Cn4cncn4)cc3)n2)cc1S(N)(=O)=O [III-101, N2-(3-Aminosulfonyl-4-methylphenyl)-5-fluoro-N4-{4-[1-(1,2,4-thazolyl)methyl]phenyl}-2,4-pyrimidinediamine]
- IC50 (Primary human T-cells; [2]): 446 nM

- IC50 ([1]; Ramos B-cell line stimulated with IL-4, CD23 expression by FACS, Hydrochloride Salt): 131 nM
Compound: NS(=O)(=O)c1cccc(Nc2ncc(F)c(Nc3ccc(Cc4ccncc4)cc3)n2)c1 [III-73, N2-(3-Aminosulfonylphenyl)-5-fluoro-N4-[4-(4-pyridylmethyl)phenyl]-2,4-pyrimidinediamine Hydrochloride Salt]
- IC50 (Primary human T-cells; primary human T-cell proliferation stimulated with IL-2, Hydrochloride Salt): 434 nM

- IC50 [1, 5]: 306 nM
Compound: Cn1ccc(NC(=O)Cc2ccc(Nc3nc(Nc4cccc(S(N)(=O)=O)c4)ncc3F)cc2)n1 [III-50, N2-(3-Aminosulfonylphenyl)-5-fluoro-N-4-[4(1-methylpyrazolyl-3-aminocarbonylmethylene)phenyl]-2,4-pyrimidinediamine]
- IC50 (Primary human T-cells; [4]): 1970 nM
